From a melting point compilation (Tetko et al.; mined from patent text by program, amines drawn as free bases though some values may be those of a salt)

SMILES | melting point [°C]
O=c1cc(Cl)nc2sc(SCc3ccccc3)nn12 | 138 to 140
COc1cc2c(cc1OC)C(C)=[N+]([O-])C(c1ccco1)N2 (stereo not drawn) | 191 to 195
Cc1cc(-c2ccc(Cl)c(Cl)c2)nc(-n2cnc(-c3ccc(S(N)(=O)=O)s3)c2)n1 | 254
O=C(O)c1cn(C2CC2)c2c(F)c(F)c(Cl)cc2c1=O | 200 to 204
Brc1cnc(-c2ccc(OCc3ccccc3)cc2)nc1 | 153 to 155
CN(CCC(Oc1ccc(C(=O)c2cc3ccccc3s2)cc1)c1ccc(Cl)cc1)CC(=O)O (stereo not drawn) | 101 to 112
O=C1Cc2ccccc2C(c2ccccc2C(F)(F)F)N1 (stereo not drawn) | 210 to 212
CC(=O)N1CC(CCN2CCC(c3ccc(C(F)(F)F)cc3)CC2)c2ccccc21 (stereo not drawn) | 98 to 100
Cn1cc(C(=O)NCc2ccc(Cl)cc2)c(=O)c2cc(CN3CCOCC3)cc(C#CCn3ccnc3)c21 | 178 to 180
O=C(Nc1ccc2cc(CN3CCCC3)cnc2c1)c1ccc(-c2ccccc2)nc1 | 208 to 210
CCOC(=O)c1[nH]c2cc(Cl)cc(Cl)c2c1NCC(=O)OCCCC(=O)c1ccccc1 | 139 to 140
CC(C(=O)O)c1ccc(-c2ccc(O)cc2)c(F)c1 (stereo not drawn) | 195 to 197
CCOC(=O)c1cn(C2CC2)c2nc(SCC)ncc2c1=O | 138
COC(=O)c1scc(C)c1-n1cccc1 | 76
COC(=O)c1ccc2c(c1)CCN2C(=O)OC(C)(C)C | 107 to 108
CCC1c2cccn2-c2ccc(F)cc2N1S(=O)(=O)c1ccc(O)c(C)c1 (stereo not drawn) | 175 to 177
CCCNC(=O)c1nc(C)ccc1C(=O)Nc1cccc2ccccc12 | 175 to 178
CC(C)n1nc(-c2c(-c3ccccc3)nn3ccc(N4CCCC4=O)cc23)ccc1=O | 266 to 267
CCCCCC(=O)Nc1nc2cc(Cl)ccc2nc1NC(=O)CC | 158 to 160
O=C(Nc1nc(C2CC2)no1)C(c1ccccc1)c1ccccc1 | 163
O=C(O)c1nc2c(NCc3ccccc3)ncnc2n1C1OC(CO)C(O)C1O (stereo not drawn) | 125 to 127

SMILES | melting point [°C]
CN1CC(Cn2ccnc2-c2ccccc2)CC2c3cccc4[nH]cc(c34)CC21 (stereo not drawn) | 193 to 195
Cc1cc(C)c(N2C(=N)N(c3c(C)cccc3C)CC2C)c(C)c1 (stereo not drawn) | 128 to 130
CC1C(=O)Nc2cccc3c2N1C(=O)C3c1ccccc1 (stereo not drawn) | 208 to 211
CC1(C)CC(=O)c2c(NC3CC3)sc(-c3cc[nH]n3)c2C1 | 232 to 235
COC(=O)[C@@H](C)Oc1ccc(Oc2cnc3ccc(Cl)cc3n2)cc1 | 80
CCCCCC(C)(C)NC(=O)CN1C(=O)c2ccccc2C1=O | 142
Cc1cccc(-c2ncc(N)c(=O)n2CC(=O)NC(Cc2ccccc2)C(=O)C(F)(F)C(=O)NCC(=O)O)c1 (stereo not drawn) | 128 to 132
CNC(=O)CN1CCc2cc(Nc3ncc(Cl)c(Nc4ccc(N5CCOCC5)cc4OC)n3)c(OC)cc2CC1 | 113 to 130
C[C@H](Nc1nc(Nc2cccc(NS(C)(=O)=O)c2)nc2[nH]cnc12)C(C)(C)C | 150 to 153
CCc1nc2c(ccc3nc(C)c(C)nc32)cc1C | 137 to 138
O=C1N(c2c(Cl)cccc2Cl)Cc2cnc(NC3CCCCC3)nc2N1c1ccccc1 | 258 to 259
COC(=O)C1=C(C)NC(N)=C(C(=O)OC(C)C)C1c1ccccc1C#N (stereo not drawn) | 211
O=C1OC(=O)c2cc3ncccc3c3cc([N+](=O)[O-])cc1c23 | > 300
Cc1nc2ccccc2n1Cc1ccc(C(=O)N(C)C2CCNCC2)cc1 | 196 to 198
CC(=O)CC(=O)N1CC(c2ccccc2)c2ccccc21 (stereo not drawn) | 88 to 89
NC(=O)C(O)c1ccsc1 (stereo not drawn) | 114 to 120
COc1ccc(C(C)=NOCc2cccc(F)c2)cc1F | 67
COc1nc(NC(=O)NS(=O)(=O)c2ccccc2S(C)(=O)=O)nc(N(C)C)n1 | 192 to 195
OCCOCC(O)c1ccc2sccc2c1 (stereo not drawn) | 119 to 120
CC(C(N)=S)C(O)(Cn1cncn1)c1ccc(F)cc1F (stereo not drawn) | 164 to 167
Nc1cccc(OCc2csc(-c3ccccc3)n2)c1 | 75 to 80

Other lines, results leading:

melting point [°C] | SMILES
251 to 255 | CN1CCN(c2ncc3c(=O)c(C(=O)O)cn(Cc4ccccc4)c3n2)CC1
208 | CC(C)(O)CC(=O)N[C@H]1CC[C@H](CCN2CCN(c3nccc4c3CCO4)CC2)CC1
103 to 105 | CSC(SC)=C(C#N)C(=O)NC1CCCCC1
243 to 244 | COc1cc(OC)c2c(=O)[nH]c(-c3cccc(N4CCN(CCS(C)(=O)=O)CC4)n3)nc2c1
201 to 204 | Cc1cc(-c2ccc(C#N)cc2)c(C)n1Cc1cnc(Cl)c(COC(=O)CCC(=O)O)c1
150 | O=c1[nH]c(=O)n(COc2ccccc2)cc1F
156 to 158 | O=C(CBr)Nc1cc(Cl)ccc1C(=O)O
119 to 121 | CN1C(=O)CSc2ccc(Cl)cc21
139 to 142 | CCc1cccc2c(C=O)cc(Cl)c(O)c12
167 to 171 | CCCC1=C(C#N)C(c2ccccc2Cl)c2cn(C(=O)Nc3ccccc3)nc2N1 (stereo not drawn)
52 to 56 | O=C(O)CCCC/C=C(/c1ccc(-c2nc(C(=O)NCCCCC3CCCCC3)co2)cc1)c1cccnc1
138 to 148 | O=C1C(N2CCOCC2)=CCCN1c1ccc(I)cc1
48 to 49 | COC1=CC(=O)C(OC)=C(CCCCCC2=C(OC)C(=O)C(C)=C(OC)C2=O)C1=O
100 to 102 | CCCCCCCCS(=O)(=O)Nc1ccccc1Oc1ccccc1C(=O)O
236 to 239 | O=C(O)c1ccc(C(=O)O)c(OC(F)(F)C(F)OC(F)(F)C(F)(OC(F)(F)C(F)(F)C(F)(F)F)C(F)(F)F)c1 (stereo not drawn)
121 to 123 | COc1ccc(C(=O)N2CCC(N3CCc4ccccc43)c3ccccc32)cc1OC (stereo not drawn)

melting point [°C] | SMILES
82 to 83 | N#CSc1ccc(C=O)cc1
134 | C#CCOc1cc(-n2c(=O)cc(C(F)(F)F)n(C)c2=O)c(F)cc1Br
141 to 142 | Cc1c2n(c(=O)n(Cc3ccccc3)c1=O)CCCS2
113 to 114 | Cc1cc(C)c2nsnc2c1N
173 to 175 | CCCCNC(=O)NS(=O)(=O)c1cccc2c1CCCC2
139 to 140 | CC(=O)SCC(C(=O)Nc1oc(CCC(=O)O)c2ccccc12)C(F)(F)F (stereo not drawn)
99 to 100 | CON=C(C(=O)O)c1cnsn1
104 to 106 | CCCCCCCNC(=O)CCCCSc1nc(-c2ccccc2)c(-c2ccccc2)[nH]1
94 to 96 | CC(C(=O)c1ccc(OC2CCCCO2)cc1)c1ccccc1 (stereo not drawn)
203 to 204 | CNC(=O)Nc1cc(C#N)ccn1
133 to 134 | CON=C1SC(C)(c2ccccc2)C(=O)N1Nc1ccccc1 (stereo not drawn)
161 to 162 | CC(C)n1c(CCN2CCN(c3cccc(C(F)(F)F)c3)CC2)nc2cc(Br)c3ccccc3c21
151 to 154 | COc1cc(Nc2c(C#N)cnc3cc(-c4ncccc4CN4CCOCC4)ccc23)c(Cl)cc1Cl
160 to 161 | [N-]=[N+]=NCC1OC(n2c(Cl)c(C=O)c3cc(Cl)c(Cl)cc32)C(O)C1O (stereo not drawn)
86 to 87 | COc1ccnc(Cl)c1N
